Test results taken from patent publication US20090035844A1, “Mechanical cell wounder device and related method” (HONG KONG BAPTIST UNIVERSITY, priority 2007, published 2009).

Test system: IEC-6 cells
Test: Wounding assay: migration of IEC-6 cells after mechanical wounding (96-well plate)
Assay type: cell-based, rat
Protocol: After incubation in 10% FBS supplemented DMEM for 24 hours, the cells are starved in serum-free medium for another 24 hours. […] A cell denuded area is created by scratching the cell monolayer with the eight-channel mechanical wounder fitted with p-10 pipette tips (Axygen, T-300). To ensure even contact between the tips and the bottom of the well, the pins are calibrated by adjusting the hex screw with a hex wrench. With the help of the guiding-bar, the wounder is fixed onto the 96-well plate where each channel (pipette tip) is positioned at the same level in the eight wells of the same column. During wounding, the cell monolayer is scratched by moving the wounder from the left inner edge to the right inner edge of the wells where a sharp wound is formed along the diameter of each well. The wounding procedure is then repeated for all columns of a 96-well plate.
Photomicrographs of wounds are taken at time zero (501, 503, 505), 16 hours (511, 513, 515) and 24 hours (521, 523, 525) after wounding. Images at time zero are taken to record the initial width of the wounds and the recovery of the wounded monolayers due to cell migration towards the denuded area can be evaluated at 16 and 24 hours. The images are captured using an inverted phase-contract microscope such as a TMS Nikon with 4× objective, and the width of wound can quantified by the software such as Motic image plus 2.0 software of Motic Instruments. The migration of cells towards the wounds is expressed as a percentage of wound closure where % of wound closure=[(Wt=0−Wt=16 or 24)/Wt=0]×100% where Wt=0 is the width of wound measured immediately after scratching and Wt=16 or 24 is the width of wound measured 16 hours or 24 hours after scratching.

Row | Compound | percentage of wound closure (16 hours after wounding, 5 mM DFMO in serum-free medium (control about 60%)) | percentage of wound closure (24 hours after wounding, 5 mM DFMO in serum-free medium (control 76%)) | percentage of wound closure (24 hours after wounding, 20 ng/ml EGF in serum-free medium (control 76%))
1 | NCCC[C@](N)(C(=O)O)C(F)F [DFMO, alpha-difluoromethylornithine] | 33% | around 50% | –
2 | epithelial growth factor (NSDSECPLSHDGYCLHDGVCMYIEALDKYACNCVVGYIGERCQYRDLKWWELR; Epidermal growth factor; UniProt P01133 971-1023, looked up) [EGF, cell migration enhancer, used as the inducer of cell migration] | – | – | ~100%
